The values that follow are results of earlier work, collected in patent US9173850B2, “4-methylpyrazole formulations” (RAPTOR PHARMACEUTICALS INC., priority 2009, dated 2015).

This data set relates to ethanol intolerance. The conditions noted are these: doses below 10 mg/kg; subjects with reduced or absent ALDH activity who have consumed alcohol.

As for `Cc1cn[nH]c1` [Formulation 4-MP, 4-Methylpyrazole], the “Effectiveness in treating ethanol intolerance or symptoms of aldehyde accumulation” value is on record as “effective”.
